Source: PMC6556873, “Rapid Covalent-Probe Discovery by Electrophile-Fragment Screening” (Journal of the American Chemical Society, 2019)
Where two headings read alike, the source gives them in different places.

Assays:
NNMT (hNNMT) = target: T1, NNMT (hNNMT) (Homo sapiens, UniProt P40261); parameters: Intact protein LC/MS covalent labelling, fragments in pools of five, 200 uM each, 4 °C; details: 24 h, 4 °C, pool of five; 200 µM; covalent
T1 construct: wild type, N-terminal His6 tag kept (no cleavage described), E. coli, construct 31248 Da
T1 sequence (P40261 1-264): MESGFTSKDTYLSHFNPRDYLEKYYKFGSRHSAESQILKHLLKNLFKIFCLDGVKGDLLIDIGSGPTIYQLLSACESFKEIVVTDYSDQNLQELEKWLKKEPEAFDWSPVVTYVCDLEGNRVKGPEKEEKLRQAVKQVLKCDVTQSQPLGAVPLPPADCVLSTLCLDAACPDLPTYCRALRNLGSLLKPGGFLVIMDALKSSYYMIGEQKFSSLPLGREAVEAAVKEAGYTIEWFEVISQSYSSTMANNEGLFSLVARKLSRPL

NUDT7 = target: T2, NUDT7 (Homo sapiens, UniProt P0C024); parameters: Intact protein LC/MS covalent labelling, fragments in pools of five, 200 uM each, 4 °C; details: 24 h, 4 °C, pool of five; 200 µM; covalent
T2 construct: residues 14-235, E. coli, pNIC28-Bsa4, N-terminal His6 tag removed by TEV, construct 26672 Da

BSA = target: T3, BSA (Bos taurus, UniProt P02769); parameters: Intact protein LC/MS covalent labelling, fragments in pools of five, 200 uM each, 4 °C; details: 24 h, 4 °C, pool of five; 200 µM; covalent
T3 construct: gene ALB

OTUB2 (OTUB2A) = target: T4, OTUB2 (OTUB2A) (Homo sapiens, UniProt Q96DC9); parameters: Intact protein LC/MS covalent labelling, fragments in pools of five, 200 uM each, 4 °C; details: 24 h, 4 °C, pool of five; 200 µM; covalent
T4 construct: full length residues 1-234, E. coli BL21(DE3)-R3, His tag removed by TEV, construct 27312 Da
T4 sequence (Q96DC9 1-234): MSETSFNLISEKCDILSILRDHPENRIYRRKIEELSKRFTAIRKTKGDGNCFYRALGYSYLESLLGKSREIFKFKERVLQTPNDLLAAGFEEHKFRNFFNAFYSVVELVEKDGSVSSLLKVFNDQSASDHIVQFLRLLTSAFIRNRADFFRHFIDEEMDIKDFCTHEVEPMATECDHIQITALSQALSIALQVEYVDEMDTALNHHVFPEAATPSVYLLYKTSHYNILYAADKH

PCAF = target: T5, PCAF (Homo sapiens, UniProt Q92831); parameters: Intact protein LC/MS covalent labelling, fragments in pools of five, 200 uM each, 4 °C; details: 24 h, 4 °C, pool of five; 200 µM; covalent
T5 construct: gene KAT2B

in vitro [1] = assay: in vitro; parameters: species or system CCD841, HEK293; details: human, hb2 cells, read-out: HB-2 Cells Viability (%)
in vitro [2] = assay: in vitro; parameters: species or system HB2, CCD841; details: human, hek293 cells
in vitro [3] = assay: in vitro; parameters: species or system HB2, HEK293; details: human, ccd841 cells

T2 sequence (P0C024 14-235): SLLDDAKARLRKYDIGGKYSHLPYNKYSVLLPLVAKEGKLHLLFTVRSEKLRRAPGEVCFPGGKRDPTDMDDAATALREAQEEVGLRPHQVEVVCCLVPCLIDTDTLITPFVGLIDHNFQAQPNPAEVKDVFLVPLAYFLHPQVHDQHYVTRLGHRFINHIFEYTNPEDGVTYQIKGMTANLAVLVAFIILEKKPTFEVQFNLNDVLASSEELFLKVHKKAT
T5 sequence (Q92831 whole entry, the tested form may be a part): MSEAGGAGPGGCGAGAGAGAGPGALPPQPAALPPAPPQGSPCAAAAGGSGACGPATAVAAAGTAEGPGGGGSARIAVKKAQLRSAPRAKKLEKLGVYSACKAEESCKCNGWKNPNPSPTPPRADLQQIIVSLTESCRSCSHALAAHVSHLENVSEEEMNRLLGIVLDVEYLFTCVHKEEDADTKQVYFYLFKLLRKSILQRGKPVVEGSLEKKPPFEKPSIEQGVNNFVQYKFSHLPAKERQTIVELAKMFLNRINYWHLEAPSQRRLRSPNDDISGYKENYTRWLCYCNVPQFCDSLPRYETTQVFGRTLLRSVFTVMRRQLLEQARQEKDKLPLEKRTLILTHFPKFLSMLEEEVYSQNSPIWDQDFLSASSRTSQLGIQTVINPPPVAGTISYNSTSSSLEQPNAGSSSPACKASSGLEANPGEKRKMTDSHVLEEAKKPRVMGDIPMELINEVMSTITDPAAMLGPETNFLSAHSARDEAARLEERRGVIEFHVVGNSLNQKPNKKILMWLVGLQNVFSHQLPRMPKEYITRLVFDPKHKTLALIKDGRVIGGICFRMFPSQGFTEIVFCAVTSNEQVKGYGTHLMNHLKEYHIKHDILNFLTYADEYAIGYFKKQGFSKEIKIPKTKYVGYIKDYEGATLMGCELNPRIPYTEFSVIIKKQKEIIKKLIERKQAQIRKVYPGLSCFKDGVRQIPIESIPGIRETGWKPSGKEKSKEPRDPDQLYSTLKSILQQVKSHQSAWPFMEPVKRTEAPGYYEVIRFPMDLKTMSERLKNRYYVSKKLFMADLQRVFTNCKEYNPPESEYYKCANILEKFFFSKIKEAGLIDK
T3 sequence (P02769 whole entry, the tested form may be a part): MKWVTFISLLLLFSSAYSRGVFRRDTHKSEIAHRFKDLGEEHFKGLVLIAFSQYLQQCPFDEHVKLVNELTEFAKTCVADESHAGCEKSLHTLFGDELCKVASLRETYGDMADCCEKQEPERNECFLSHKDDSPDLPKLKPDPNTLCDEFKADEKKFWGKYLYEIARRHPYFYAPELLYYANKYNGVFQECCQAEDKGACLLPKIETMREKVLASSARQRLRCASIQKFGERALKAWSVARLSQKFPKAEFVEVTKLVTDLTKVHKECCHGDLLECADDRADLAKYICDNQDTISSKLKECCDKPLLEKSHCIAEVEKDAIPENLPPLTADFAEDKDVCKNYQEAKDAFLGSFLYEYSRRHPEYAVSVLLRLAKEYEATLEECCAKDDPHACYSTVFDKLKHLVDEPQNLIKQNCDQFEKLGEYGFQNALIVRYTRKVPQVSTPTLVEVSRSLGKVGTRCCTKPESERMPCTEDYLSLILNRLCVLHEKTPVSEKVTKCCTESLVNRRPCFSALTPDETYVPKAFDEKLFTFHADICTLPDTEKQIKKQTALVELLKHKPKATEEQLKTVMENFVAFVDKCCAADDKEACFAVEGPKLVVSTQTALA

Structure (SMILES) | NNMT (NNMT (hNNMT)) | NUDT7 (NUDT7) | BSA (BSA) | OTUB2 (OTUB2 (OTUB2A)) | PCAF (PCAF) | viability at 48 h, 10 µM (in vitro [1]) [%] | viability at 48 h, 10 µM (in vitro [2]) [%] | viability at 48 h, 10 µM (in vitro [3]) [%]
C=CC(=O)N1CCCCC1c1ncon1 (centres unmarked) [PCM-0102517] | 0 | 0 | 0 | 0 | 0 | 101 | 91.3 | 120
C=CC(=O)N1CCN(C(=O)CN2C(=O)CCC2=O)CC1 [PCM-0102684] | 0 | 0.08 | 0 | 0 | 0 | 99.9 | 105 | 103
O=C(CCl)Nc1nc2c(s1)CCC2 [PCM-0102457] | 0.59 | 0.37 | 0 | 0 | 0 | 42.3 | 43.3 | 61
O=C(CCl)Nc1cc2ccccc2cc1C(=O)O [PCM-0102311] | 0.2 | 0.17 | 0 | 0.1 | 0 | 105 | 109 | 100
CCOC(=O)N1CCC(NC(=O)CCl)CC1 [PCM-0102255] | 0.23 | 0 | 0 | 0.24 | 0 | 61.8 | 74.2 | 61.3
CC(NC(=O)CCl)c1ccc(F)cc1 (centres unmarked) [PCM-0102228] | 0 | 0.07 | 0 | 0.2 | 0 | 84.6 | 63.8 | 83.2
CC(C)(C)c1ccc(C(=O)NNC(=O)CCl)cc1 [PCM-0102355] | 0 | 0 | 0 | 0.66 | 0 | 48.1 | 53.7 | 44.3
C=CC(=O)N1CCN(C(=O)Cc2c(C)noc2C)CC1 [PCM-0102531] | 0 | 0 | 0 | 0 | 0 | 106 | 91.3 | 106
O=C(CCl)Nc1ccc(F)cc1 [PCM-0103002] | 0 | 0 | 0 | 0.3 | 0 | 68.5 | 35.5 | 71.8
O=C(CCl)Nc1nc(-c2cccs2)cs1 [PCM-0102784] | 0.71 | 0.77 | 0 | 0.07 | 0 | 39.8 | 41.3 | 84.9
C=CC(=O)NC1(c2nnc3n2CCCC3)CCC1 [PCM-0102639] | 0 | 0 | 0 | 0 | 0 | 101 | 123 | 131
O=C(CCl)NC(=O)NC1CCCCC1 [PCM-0102692] | 0.76 | 0 | 0 | 0 | 0 | 48.7 | 62.3 | 70.7
N#CC1(NC(=O)CCl)CCC1 [PCM-0102854] | 0 | 0.09 | 0 | 0 | 0 | 90 | 93.1 | 81.1
CC(C)N(C(=O)CCl)C(C)C [PCM-0103023] | 0 | 0 | 0 | 0 | 0 | 102 | 110 | 106
O=C(CCl)Nc1ccccc1F [PCM-0102158] | 0 | 0 | 0 | 0.51 | 0 | 50 | 34.2 | 59
O=C(CCl)NC1CCS(=O)(=O)C1 (centres unmarked) [PCM-0102138] | 0 | 0 | 0 | 0 | 0 | 92.6 | 113 | 84.2
CN(C)C(=O)CN1CCN(C(=O)CCl)CC1.Cl [PCM-0102304] | 0 | 0 | 0 | 0 | 0 | 107 | 128 | 114
O=C(CCl)NC1C2CC3CC(C2)CC1C3 (centres unmarked) [PCM-0102404] | 0 | 0 | 0 | 0.33 | 0 | 63.3 | 90.6 | 68.9
O=C(CCl)NC(=O)c1ccccc1Br [PCM-0102464] | 0 | 0 | 0 | 0 | 0 | 104 | 107 | 113
CC1CCCC(C)N1C(=O)CCl (centres unmarked) [PCM-0102616] | 0.2 | 0 | 0 | 0 | 0 | 71 | 57.9 | 88.1
C=CC(=O)N1CCC(n2ccc(C(F)(F)F)n2)CC1 [PCM-0102435] | 0 | 0 | 0 | 0 | 0 | 96.3 | 85.7 | 93.3
O=C(CCl)N(c1ccccc1)C1CCS(=O)(=O)C1 (centres unmarked) [PCM-0102755] | 0 | 0.17 | 0 | 0 | 0 | 28.5 | 16.7 | 20.4
C=CC(=O)NNC(=O)c1ccccc1 [PCM-0102541] | 0 | 0 | 0 | 0 | 0 | 106 | 106 | 112
O=C(CCl)Nc1c(F)cc(F)cc1Br [PCM-0102189] | 0.11 | 0.1 | 0 | 0 | 0 | 79.5 | 72.4 | 59.6
C=CC(=O)N1CCC(C(=O)O)(c2ccccc2)CC1 [PCM-0102459] | 0 | 0 | 0 | 0 | 0 | 103 | 110 | 98.8
N#Cc1cccc(CNC(=O)CCl)c1 [PCM-0102936] | 0 | 0 | 0 | 0.32 | 0 | 97.1 | 83.1 | 94.9
O=C(CCl)NCc1cc(Br)cs1 [PCM-0103050] | 0 | 0.13 | 0 | 0.84 | 0 | 87 | 53.1 | 75.7
Cc1ccc(Cn2ccsc2=NC(=O)CCl)cc1 [PCM-0102708] | 0 | 0.09 | 0 | 0 | 0 | 36 | 7.9 | 3
